Data from patent US20230085307A1, “PYRIDAZINONE COMPOUND AND HERBICIDE” (NISSAN CHEMICAL CORPORATION, priority 2019, published 2023).

Tests used:
[1] = test system: late watergrass; experiment: Test Example 2: herbicidal activity, application during weed generation under submerged conditions (Table 17, symbol A); type: in vivo, late watergrass (Echinochloa oryzicola); settings: AAH 320 g/ha; application during weed generation, submerged conditions
Procedure, shortened: (§1)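 In this pot test, flooded alluvial soil (water depth 4 cm) holds all three species sown as a mixture. Once seedlings have one to two leaves, the compound's emulsion, thinned with water to the intended dose, is poured on the water; grading follows after three weeks on the earlier criteria.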

[2] = test system: Japanese bulrush; experiment: Test Example 2: herbicidal activity, application during weed generation under submerged conditions (Table 17, symbol B); type: in vivo, Japanese bulrush (Schoenoplectus juncoides); settings: AAH 320 g/ha; application during weed generation, submerged conditions
Procedure, shortened: as §1

[3] = test system: oval-leafed pondweed; experiment: Test Example 2: herbicidal activity, application during weed generation under submerged conditions (Table 17, symbol C); type: in vivo, oval-leafed pondweed (Monochoria vaginalis); settings: AAH 320 g/ha; application during weed generation, submerged conditions
Procedure, shortened: as §1

[4] = test system: southern crabgrass; experiment: Test Example 4: herbicidal effect by soil treatment (Table 19, symbol F); type: in vivo, southern crabgrass (Digitaria ciliaris)
Procedure, shortened: (§2)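 Herbicidal effect was rated 3 weeks after treatment, using the scoring criteria of an earlier test. The compound, formulated as an emulsion and diluted in water to a set herbicide amount, had been sprayed uniformly on soil over freshly sown seeds. Growth took place in a greenhouse at 25° C. to 30° C.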

[5] = test system: green foxtail; experiment: Test Example 4: herbicidal effect by soil treatment (Table 19, symbol G); type: in vivo, green foxtail (Setaria viridis)
Procedure, shortened: as §2

[6] = test system: barnyard grass; experiment: Test Example 4: herbicidal effect by soil treatment (Table 19, symbol H); type: in vivo, barnyard grass (Echinochloa crus-galli)
Procedure, shortened: as §2

[7] = test system: wild oat; experiment: Test Example 4: herbicidal effect by soil treatment (Table 19, symbol I); type: in vivo, wild oat (Avena fatua)
Procedure, shortened: as §2

[8] = test system: blackgrass; experiment: Test Example 4: herbicidal effect by soil treatment (Table 19, symbol J); type: in vivo, blackgrass (Alopecurus myosuroides)
Procedure, shortened: as §2

[9] = test system: velvetleaf; experiment: Test Example 4: herbicidal effect by soil treatment (Table 19, symbol M); type: in vivo, velvetleaf (Abutilon theophrasti)
Procedure, shortened: as §2

[10] = test system: redroot pigweed; experiment: Test Example 4: herbicidal effect by soil treatment (Table 19, symbol N); type: in vivo, redroot pigweed (Amaranthus retroflexus)
Procedure, shortened: as §2

[11] = test system: persian speedwell; experiment: Test Example 4: herbicidal effect by soil treatment (Table 19, symbol R); type: in vivo, Persian speedwell (Veronica persica)
Procedure, shortened: as §2

[12] = test system: barnyard grass; experiment: Test Example 5: herbicidal effect by foliage application, plastic box (Table 20, symbol H); type: in vivo, barnyard grass (Echinochloa crus-galli); settings: foliage application; for herbicidal effect on H: barnyard grass: 320 g/ha
Procedure, shortened: (§3)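 Foliar spray test: emulsion formulation diluted in water to a set application rate, sprayed onto 14-day-old plants raised in diluvial soil at 25° C to 30° C under glass. Both herbicidal effect and crop effect rated visually three weeks later.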

[13] = test system: windgrass; experiment: Test Example 5: herbicidal effect by foliage application, plastic box (Table 20, symbol L); type: in vivo, windgrass (Apera spica-venti); settings: foliage application; for herbicidal effect on L: windgrass: 320 g/ha
Procedure, shortened: as §3

[14] = test system: redroot pigweed; experiment: Test Example 5: herbicidal effect by foliage application, plastic box (Table 20, symbol N); type: in vivo, redroot pigweed (Amaranthus retroflexus); settings: foliage application; for herbicidal effect on N: redroot pigweed: 320 g/ha
Procedure, shortened: as §3

[15] = test system: chickweed; experiment: Test Example 5: herbicidal effect by foliage application, plastic box (Table 20, symbol P); type: in vivo, common chickweed (Stellaria media); settings: foliage application; for herbicidal effect on P: chickweed: 320 g/ha
Procedure, shortened: as §3

[16] = test system: persian speedwell; experiment: Test Example 5: herbicidal effect by foliage application, plastic box (Table 20, symbol R); type: in vivo, Persian speedwell (Veronica persica); settings: foliage application; for herbicidal effect on R: persian speedwell: 320 g/ha
Procedure, shortened: as §3

[17] = AAH 320 g/ha, three weeks after application
[18] = evaluated three weeks after application
[19] = amount of applied herbicide 320 g/ha
[20] = AAH 320 g/ha, evaluated three weeks after application

Structure (SMILES): C#CCOc1ccc(-c2sc3ccccc3c2-c2c(O)c(C)nn(C)c2=O)cc1 [1-136]
- herbicidal effect rating, A: late watergrass [1]: 0 (Herbicidal rate of 5% or less (almost no effect))
- herbicidal effect rating, B: Japanese bulrush [2]: 2 (Herbicidal rate of 20% or more and less than 40%)
- herbicidal effect rating, C: oval-leafed pondweed [3]: 0 (Herbicidal rate of 5% or less (almost no effect))
- F: southern crabgrass, herbicidal effect rating ([4]; AAH 320 g/ha): 2 (Herbicidal rate of 20% or more and less than 40%)
- G: green foxtail, herbicidal effect rating ([5]; AAH 320 g/ha): 4 (Herbicidal rate of 70% or more and less than 90%)
- H: barnyard grass, herbicidal effect rating ([6]; AAH 320 g/ha): 4 (Herbicidal rate of 70% or more and less than 90%)
- I: wild oat, herbicidal effect rating ([7]; AAH 320 g/ha): 0 (Herbicidal rate of 5% or less (almost no effect))
- J: blackgrass, herbicidal effect rating ([8]; AAH 320 g/ha): 0 (Herbicidal rate of 5% or less (almost no effect))
- M: velvetleaf, herbicidal effect rating ([9]; AAH 320 g/ha): 3 (Herbicidal rate of 40% or more and less than 70%)
- N: redroot pigweed, herbicidal effect rating ([10]; AAH 320 g/ha): 4 (Herbicidal rate of 70% or more and less than 90%)
- R: persian speedwell, herbicidal effect rating ([11]; AAH 320 g/ha): 4 (Herbicidal rate of 70% or more and less than 90%)
- H: barnyard grass, herbicidal effect [12, 17]: 4 (Herbicidal rate of 70% or more and less than 90%)
- L: windgrass, herbicidal effect [13, 17]: 5 (Herbicidal rate of 90% or more (almost completely withered))
- N: redroot pigweed, herbicidal effect [14, 17]: 4 (Herbicidal rate of 70% or more and less than 90%)
- P: chickweed, herbicidal effect [15, 17]: 5 (Herbicidal rate of 90% or more (almost completely withered))
- R: persian speedwell, herbicidal effect [16, 17]: 5 (Herbicidal rate of 90% or more (almost completely withered))

Structure (SMILES): CCCC(=O)Oc1c(C)nn(C)c(=O)c1-c1c(-c2ccc(OC)c(F)c2)sc2ccc(F)cc12 [2-087]
- herbicidal effect rating, A: late watergrass [1]: 0 (Herbicidal rate of 5% or less (almost no effect))
- herbicidal effect rating, B: Japanese bulrush [2]: 2 (Herbicidal rate of 20% or more and less than 40%)
- herbicidal effect rating, C: oval-leafed pondweed [3]: 0 (Herbicidal rate of 5% or less (almost no effect))
- herbicidal effect rating, F: southern crabgrass ([4]; 320 g/ha): 0 (Herbicidal rate of 5% or less (almost no effect))
- herbicidal effect rating, G: green foxtail ([5]; 320 g/ha): 0 (Herbicidal rate of 5% or less (almost no effect))
- herbicidal effect rating, H: barnyard grass ([6]; 320 g/ha): 0 (Herbicidal rate of 5% or less (almost no effect))
- herbicidal effect rating, I: wild oat ([7]; 320 g/ha): 0 (Herbicidal rate of 5% or less (almost no effect))
- herbicidal effect rating, J: blackgrass ([8]; 320 g/ha): 0 (Herbicidal rate of 5% or less (almost no effect))
- herbicidal effect rating, M: velvetleaf ([9]; 320 g/ha): 3 (Herbicidal rate of 40% or more and less than 70%)
- herbicidal effect rating, N: redroot pigweed ([10]; 320 g/ha): 3 (Herbicidal rate of 40% or more and less than 70%)
- herbicidal effect rating, R: persian speedwell ([11]; 320 g/ha): 5 (Herbicidal rate of 90% or more (almost completely withered))
- herbicidal effect on H: barnyard grass [12, 18]: 0 (Herbicidal rate of 5% or less (almost no effect))
- herbicidal effect on L: windgrass [13, 18]: 0 (Herbicidal rate of 5% or less (almost no effect))
- herbicidal effect on N: redroot pigweed [14, 18]: 4 (Herbicidal rate of 70% or more and less than 90%)
- herbicidal effect on P: chickweed [15, 18]: 5 (Herbicidal rate of 90% or more (almost completely withered))
- herbicidal effect on R: persian speedwell [16, 18]: 5 (Herbicidal rate of 90% or more (almost completely withered))

Structure (SMILES): Cc1nn(C)c(=O)c(-c2c(-c3ccc(C#N)cc3)sc3ccc(F)cc23)c1O [2-340]
- herbicidal effect rating, A: late watergrass [1]: 5 (Herbicidal rate of 90% or more (almost completely withered))
- herbicidal effect rating, B: Japanese bulrush [2]: 4 (Herbicidal rate of 70% or more and less than 90%)
- herbicidal effect rating, C: oval-leafed pondweed [3]: 3 (Herbicidal rate of 40% or more and less than 70%)
- herbicidal effect on F: southern crabgrass [4, 19]: 5 (Herbicidal rate of 90% or more (almost completely withered))
- herbicidal effect on G: green foxtail [5, 19]: 5 (Herbicidal rate of 90% or more (almost completely withered))
- herbicidal effect on H: barnyard grass [6, 19]: 5 (Herbicidal rate of 90% or more (almost completely withered))
- herbicidal effect on I: wild oat [7, 19]: 3 (Herbicidal rate of 40% or more and less than 70%)
- herbicidal effect on J: blackgrass [8, 19]: 3 (Herbicidal rate of 40% or more and less than 70%)
- herbicidal effect on M: velvetleaf [9, 19]: 5 (Herbicidal rate of 90% or more (almost completely withered))
- herbicidal effect on N: redroot pigweed [10, 19]: 5 (Herbicidal rate of 90% or more (almost completely withered))
- herbicidal effect on R: persian speedwell [11, 19]: 5 (Herbicidal rate of 90% or more (almost completely withered))
- H: barnyard grass, herbicidal effect (criteria 0-5) [12, 20]: 5 (Herbicidal rate of 90% or more (almost completely withered))
- L: windgrass, herbicidal effect (criteria 0-5) [13, 20]: 4 (Herbicidal rate of 70% or more and less than 90%)
- N: redroot pigweed, herbicidal effect (criteria 0-5) [14, 20]: 5 (Herbicidal rate of 90% or more (almost completely withered))
- P: chickweed, herbicidal effect (criteria 0-5) [15, 20]: 5 (Herbicidal rate of 90% or more (almost completely withered))
- R: persian speedwell, herbicidal effect (criteria 0-5) [16, 20]: 5 (Herbicidal rate of 90% or more (almost completely withered))

Structure (SMILES): Cc1nn(C)c(=O)c(-c2c(-c3ccc(C#N)cc3)sc3ccc(Cl)cc23)c1O [2-112]
- herbicidal effect rating, A: late watergrass [1]: 3 (Herbicidal rate of 40% or more and less than 70%)
- herbicidal effect rating, B: Japanese bulrush [2]: 0 (Herbicidal rate of 5% or less (almost no effect))
- herbicidal effect rating, C: oval-leafed pondweed [3]: 0 (Herbicidal rate of 5% or less (almost no effect))
- F: southern crabgrass, herbicidal effect rating [4, 19]: 3 (Herbicidal rate of 40% or more and less than 70%)
- G: green foxtail, herbicidal effect rating [5, 19]: 0 (Herbicidal rate of 5% or less (almost no effect))
- H: barnyard grass, herbicidal effect rating [6, 19]: 0 (Herbicidal rate of 5% or less (almost no effect))
- I: wild oat, herbicidal effect rating [7, 19]: 0 (Herbicidal rate of 5% or less (almost no effect))
- J: blackgrass, herbicidal effect rating [8, 19]: 3 (Herbicidal rate of 40% or more and less than 70%)
- M: velvetleaf, herbicidal effect rating [9, 19]: 4 (Herbicidal rate of 70% or more and less than 90%)
- N: redroot pigweed, herbicidal effect rating [10, 19]: 5 (Herbicidal rate of 90% or more (almost completely withered))
- R: persian speedwell, herbicidal effect rating [11, 19]: 5 (Herbicidal rate of 90% or more (almost completely withered))
- herbicidal effect on H: barnyard grass [12, 18]: 4 (Herbicidal rate of 70% or more and less than 90%)
- herbicidal effect on L: windgrass [13, 18]: 5 (Herbicidal rate of 90% or more (almost completely withered))
- herbicidal effect on N: redroot pigweed [14, 18]: 5 (Herbicidal rate of 90% or more (almost completely withered))
- herbicidal effect on P: chickweed [15, 18]: 5 (Herbicidal rate of 90% or more (almost completely withered))
- herbicidal effect on R: persian speedwell [16, 18]: 5 (Herbicidal rate of 90% or more (almost completely withered))
